The source made the active and inactive calls. The calls are words filed in the database; no cut-off is given here.
Assays:
Echinoidea [1] = experiment: Effect on fertilized sea urchin egg division assessed as delaying of metamorphosis at 5 ug/ml; type: functional
Pluteus = experiment: Decrease in mobility of Pluteus larvae at 10 ug/ml; type: functional, organism-based
Echinoidea [2] = experiment: Inhibition of sea urchin egg division at 5 ug/ml; type: functional
Echinoidea [3] = experiment: Inhibition of sea urchin egg division at 20 ug/ml; type: functional

Structure (SMILES) | Activity (Echinoidea [1]) | Activity (Pluteus) | Activity (Echinoidea [2]) | Activity (Echinoidea [3])
Cn1c(Br)c(C=O)c2cc(Br)c(Br)cc21 | Active | Active |  | 
CN(C)Cc1c(Br)n(C)c2cc(Br)c(Br)cc12 |  |  | Active | Active
Cn1c(Br)c(C[N+](C)(C)[O-])c2cc(Br)c(Br)cc21 |  |  | Active | Active
